Test results published in patent publication US7714023B2, “Treatment or prophylaxis of migraine or headache disorders using citalopram, escitalopram or citalopram metabolites” (priority 2004, dated 2010).
pIC50: −log10 of the molar value. Values joined by “and” are separate entries in the source; they are usually repeats but may differ in a detail not shown here. Identical values can stand only once. Like-named read-outs stand apart in the source and are kept apart here.

Experiments:
[1] = system: 5-HT uptake; assay: 5-HT uptake into rat brain synaptosomes; assay type: biochemical
[2] = system: cytochrome P450 enzymes (P450 4A, P4502C19, P450 2D6, P4501A2, P450 2C9, P450 2E1); details: in vitro; not by more than the stated degree; cited from earlier work
[3] = system: DA uptake; assay: DA uptake into rat corpora striatum synaptosomes; assay type: biochemical
[4] = system: NE uptake; assay: NE uptake, rat hypothalamus synaptosomes; assay type: biochemical
[5] = system: receptors for acetylcholine, histamine, norepinephrine, dopamine; monoamine oxidase; dopamine and norepinephrine reuptake sites; details: Willets, 1999; cited from earlier work
[6] = target: T1, DA transporter (h) (Homo sapiens, UniProt Q01959); assay: DA transporter (h) binding, [3H]GBR12935
T1 construct: expressed in transfected cells; host or cells: CHO cells
T1 sequence (Q01959 whole entry): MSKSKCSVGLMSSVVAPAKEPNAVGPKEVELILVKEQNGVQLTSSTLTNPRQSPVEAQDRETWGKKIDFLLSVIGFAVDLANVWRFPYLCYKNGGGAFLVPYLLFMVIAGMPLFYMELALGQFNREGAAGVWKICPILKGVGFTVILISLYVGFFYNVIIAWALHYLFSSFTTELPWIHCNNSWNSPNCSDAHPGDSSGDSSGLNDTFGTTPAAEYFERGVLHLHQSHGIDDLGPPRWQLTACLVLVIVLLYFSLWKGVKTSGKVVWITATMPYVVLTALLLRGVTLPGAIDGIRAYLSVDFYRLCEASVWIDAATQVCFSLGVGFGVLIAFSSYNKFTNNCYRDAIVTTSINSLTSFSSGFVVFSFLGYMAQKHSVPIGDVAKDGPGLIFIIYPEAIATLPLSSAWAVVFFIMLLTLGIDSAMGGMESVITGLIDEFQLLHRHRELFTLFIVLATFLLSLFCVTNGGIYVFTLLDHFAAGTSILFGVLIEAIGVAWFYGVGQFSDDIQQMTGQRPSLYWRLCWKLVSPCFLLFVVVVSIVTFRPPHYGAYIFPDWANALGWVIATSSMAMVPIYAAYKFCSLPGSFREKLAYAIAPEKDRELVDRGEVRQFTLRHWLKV

[7] = target: T2, NE transporter (h) (Homo sapiens, UniProt P23975); assay: NE transporter (h) binding, [3H]nisoxetine
T2 construct: expressed in transfected cells; host or cells: MDCK cells
T2 sequence (P23975 whole entry): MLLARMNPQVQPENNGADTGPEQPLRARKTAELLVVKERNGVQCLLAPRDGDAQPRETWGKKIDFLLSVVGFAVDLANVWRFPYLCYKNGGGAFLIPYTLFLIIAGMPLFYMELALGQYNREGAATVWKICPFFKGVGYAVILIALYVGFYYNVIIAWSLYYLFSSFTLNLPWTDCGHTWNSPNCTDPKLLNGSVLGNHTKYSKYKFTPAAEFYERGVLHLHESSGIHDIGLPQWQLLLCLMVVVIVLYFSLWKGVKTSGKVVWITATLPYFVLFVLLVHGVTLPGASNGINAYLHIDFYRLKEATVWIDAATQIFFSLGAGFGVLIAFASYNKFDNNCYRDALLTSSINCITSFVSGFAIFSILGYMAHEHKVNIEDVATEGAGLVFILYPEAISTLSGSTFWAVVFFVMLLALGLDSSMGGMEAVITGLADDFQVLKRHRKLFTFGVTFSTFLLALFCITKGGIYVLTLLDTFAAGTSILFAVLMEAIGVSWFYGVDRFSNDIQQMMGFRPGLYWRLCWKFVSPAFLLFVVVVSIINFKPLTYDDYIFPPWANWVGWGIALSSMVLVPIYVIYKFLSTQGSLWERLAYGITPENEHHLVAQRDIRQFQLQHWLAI

[8] = target: T3, DA transporter (Rattus norvegicus, UniProt P23977); assay: DA transporter binding, rat striatum, [3H]GBR12935; details: Table 2, ten concentrations; read-out: Transporter and Muscarinic Receptor Binding IC50 DA
T3 construct: Rat striatum; from tissue; host or cells: rat striatum
T3 sequence (P23977 whole entry): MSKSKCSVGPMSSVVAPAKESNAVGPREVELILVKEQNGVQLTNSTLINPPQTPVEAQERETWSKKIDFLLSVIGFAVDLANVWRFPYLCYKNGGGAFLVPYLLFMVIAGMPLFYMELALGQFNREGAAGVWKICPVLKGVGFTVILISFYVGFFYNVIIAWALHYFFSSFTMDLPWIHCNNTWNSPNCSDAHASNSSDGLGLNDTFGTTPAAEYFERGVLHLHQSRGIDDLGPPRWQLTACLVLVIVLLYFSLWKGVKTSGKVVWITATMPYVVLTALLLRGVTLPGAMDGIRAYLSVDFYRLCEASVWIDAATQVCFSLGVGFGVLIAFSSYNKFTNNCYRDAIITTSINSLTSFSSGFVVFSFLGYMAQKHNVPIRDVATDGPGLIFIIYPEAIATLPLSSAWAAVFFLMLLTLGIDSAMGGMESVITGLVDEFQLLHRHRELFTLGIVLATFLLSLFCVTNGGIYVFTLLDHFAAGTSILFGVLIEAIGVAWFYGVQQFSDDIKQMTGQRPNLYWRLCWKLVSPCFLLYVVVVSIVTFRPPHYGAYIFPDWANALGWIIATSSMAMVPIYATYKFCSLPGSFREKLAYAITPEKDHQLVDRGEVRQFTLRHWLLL

[9] = target: T4, NE transporter (Rattus norvegicus, UniProt Q63380); assay: NE transporter binding, rat cerebral cortex, [3H]nisoxetine; details: Table 2, ten concentrations; read-out: Transporter and Muscarinic Receptor Binding IC50 NE
T4 construct: Rat cerebral cortex; from tissue; host or cells: rat cerebral cortex
T4 sequence (Q63380 1-617): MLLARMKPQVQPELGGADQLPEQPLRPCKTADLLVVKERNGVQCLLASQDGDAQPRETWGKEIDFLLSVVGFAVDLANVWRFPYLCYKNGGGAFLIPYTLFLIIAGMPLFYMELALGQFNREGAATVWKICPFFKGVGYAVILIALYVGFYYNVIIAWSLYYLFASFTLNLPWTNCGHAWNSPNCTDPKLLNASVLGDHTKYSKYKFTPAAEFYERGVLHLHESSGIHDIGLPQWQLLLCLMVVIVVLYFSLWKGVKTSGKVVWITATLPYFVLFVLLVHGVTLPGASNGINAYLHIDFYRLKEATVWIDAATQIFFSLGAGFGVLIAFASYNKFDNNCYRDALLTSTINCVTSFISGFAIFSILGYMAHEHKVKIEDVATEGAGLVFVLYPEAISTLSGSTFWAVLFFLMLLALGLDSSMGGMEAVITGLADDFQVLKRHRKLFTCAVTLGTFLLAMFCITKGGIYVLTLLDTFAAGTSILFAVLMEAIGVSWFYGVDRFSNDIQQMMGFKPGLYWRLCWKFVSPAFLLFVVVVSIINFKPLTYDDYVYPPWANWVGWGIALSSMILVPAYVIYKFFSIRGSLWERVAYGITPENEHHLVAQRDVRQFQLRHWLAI

[10] = target: T5, 5-HT transporter (Rattus norvegicus, UniProt P31652); assay: 5-HT transporter binding, rat cerebral cortex, [3H]paroxetine; details: Table 2, ten concentrations; read-out: Transporter and Muscarinic Receptor Binding IC50 5-HT rat
T5 construct: Rat cerebral cortex; from tissue; host or cells: rat cerebral cortex
T5 sequence (P31652 whole entry): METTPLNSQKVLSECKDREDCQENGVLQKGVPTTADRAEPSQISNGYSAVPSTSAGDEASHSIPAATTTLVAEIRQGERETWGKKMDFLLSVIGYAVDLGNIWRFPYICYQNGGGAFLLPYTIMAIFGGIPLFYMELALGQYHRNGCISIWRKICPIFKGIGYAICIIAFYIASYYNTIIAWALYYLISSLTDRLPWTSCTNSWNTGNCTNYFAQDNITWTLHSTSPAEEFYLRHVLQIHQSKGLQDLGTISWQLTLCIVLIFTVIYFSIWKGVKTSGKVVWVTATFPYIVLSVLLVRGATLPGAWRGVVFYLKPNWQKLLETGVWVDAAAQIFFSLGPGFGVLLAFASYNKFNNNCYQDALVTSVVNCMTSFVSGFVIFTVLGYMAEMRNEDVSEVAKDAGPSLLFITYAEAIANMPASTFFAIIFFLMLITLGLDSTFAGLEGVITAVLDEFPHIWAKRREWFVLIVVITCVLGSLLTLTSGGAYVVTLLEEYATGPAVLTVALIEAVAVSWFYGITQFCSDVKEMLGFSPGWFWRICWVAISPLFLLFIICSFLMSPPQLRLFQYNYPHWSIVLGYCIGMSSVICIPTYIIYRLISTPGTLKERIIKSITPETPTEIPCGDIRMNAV

[11] = target: T6, 5-HT transporter (h) (Homo sapiens, UniProt P31645); assay type: binding
T6 construct: expressed in transfected cells; host or cells: HEK 293 cells
T6 sequence (P31645 whole entry): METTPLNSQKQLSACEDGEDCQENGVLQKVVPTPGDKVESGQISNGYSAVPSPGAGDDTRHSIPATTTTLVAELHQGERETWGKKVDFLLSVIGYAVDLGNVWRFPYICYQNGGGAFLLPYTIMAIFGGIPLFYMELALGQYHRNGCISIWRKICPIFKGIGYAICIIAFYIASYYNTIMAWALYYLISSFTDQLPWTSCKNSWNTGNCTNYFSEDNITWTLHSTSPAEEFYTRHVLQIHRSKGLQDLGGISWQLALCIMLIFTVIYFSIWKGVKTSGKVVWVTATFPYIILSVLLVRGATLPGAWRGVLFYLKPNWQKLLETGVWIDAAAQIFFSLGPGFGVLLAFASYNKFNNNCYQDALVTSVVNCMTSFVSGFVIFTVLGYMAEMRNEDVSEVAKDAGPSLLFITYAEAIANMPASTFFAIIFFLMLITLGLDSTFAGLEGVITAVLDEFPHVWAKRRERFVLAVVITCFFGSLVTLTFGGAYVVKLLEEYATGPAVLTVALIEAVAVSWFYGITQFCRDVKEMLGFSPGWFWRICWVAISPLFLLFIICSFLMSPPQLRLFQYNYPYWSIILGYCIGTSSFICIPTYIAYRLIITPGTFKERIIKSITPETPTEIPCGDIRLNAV

[12] = Table 1, rat brain synaptosomes, read-out: Functional Uptake IC50 5-HT
[13] = Table 3, rat brain synaptosomes, read-out: Monoamine Uptake IC50 5-HT
[14] = Table 1, rat brain synaptosomes, read-out: Functional Uptake IC50 DA
[15] = Table 1, rat brain synaptosomes, read-out: Functional Uptake IC50 NE
[16] = Table 3, human recombinant CHO cells, [3H]-GBR 12935, read-out: Human Transporter Binding IC50 DA
[17] = Table 3, rat brain synaptosomes, read-out: Monoamine Uptake IC50 DA
[18] = Table 3, human recombinant MDCK cells, [3H]-nisoxetine, read-out: Human Transporter Binding IC50 NE
[19] = Table 3, rat brain synaptosomes, read-out: Monoamine Uptake IC50 NE
[20] = Table 2, ten concentrations, read-out: Transporter and Muscarinic Receptor Binding IC50 5-HT human
[21] = Table 1, racemic forms, duplicate, read-out: Transporter Binding IC50 DA
[22] = Table 1, racemic forms, duplicate, read-out: Transporter Binding IC50 NE

SMILES	pIC50 [1, 12]	pIC50 [1, 13]	pIC50 [3, 14]	pIC50 [4, 15]	pIC50 [6, 16]	pIC50 [3, 17]	pIC50 [7, 18]	pIC50 [4, 19]	pIC50 [8]	pIC50 [9]	pIC50 [10]	pIC50 [6, 21]	also measured
CN(C)CCCC1(c2ccc(F)cc2)OCc2cc(C#N)ccc21 (racemic) [Racemic citalopram, (±)-1-(3-dimethylaminopropyl)-1-(4-fluorophenyl)-1,3-dihydroisobenzofuran-5-carbonitrile, reference compound]			4.77	5.44									inhibition of the activity of cytochrome P450 enzymes [2]: mild degree; affinity for receptors for various neurotransmitters, enzymes and other reuptake sites [5]: negligible affinity
N#Cc1ccc2c(c1)CO[C@]2(CCCN)c1ccc(F)cc1 [(R)(−)-Didesmethylcitalopram]		6.89			4.41	4.57	5.26	5.89	4.85	5.44	7.57		pIC50 [11, 20]: 7.85
CN(C)CCCC1(c2ccc(F)cc2)OCc2cc(C#N)ccc21 (racemic) [Citalopram HBr (racemic), reference compound]						4.89		5.31		5.32			
N#Cc1ccc2c(c1)CO[C@@]2(CCCN)c1ccc(F)cc1 [(S)(+)-Didesmethylcitalopram]		6.74			4.26	4.96	4.62	5.48	4.15	4.70	7.72		fold higher affinity than its antipode, human 5-HT transporter [11]: 16 fold; pIC50 [11, 20]: 6.66
CNCCC[C@@]1(c2ccc(F)cc2)OCc2cc(C#N)ccc21 [(S)(+)-Desmethylcitalopram]		8.24			4.56	5.12	4.99	5.39	4.10	4.94	8.89		
CNCCC[C@]1(c2ccc(F)cc2)OCc2cc(C#N)ccc21 [(R)(−)-Desmethylcitalopram]		6.96			4.42	5.03	6.09	5.77	4.24	6.04	7.96		
CNCCCC1(c2ccc(F)cc2)OCc2cc(C#N)ccc21 (racemic) [Racemic desmethylcitalopram]	7.89		4.42	5.92								5.43	inhibition of the activity of cytochrome P450 enzymes [2]: mild degree; pIC50 [7, 22]: 4.81
CNCCCC1c2ccccc2C=Cc2ccccc21 [Protriptyline, reference compound]			9.00					8.64				8.17 and 7.82	
N#Cc1ccc2c(c1)COC2(CCCN)c1ccc(F)cc1 (racemic) [Racemic didesmethylcitalopram, 3-5-Cyano-1-(4-fluorophenyl)-1,3-dihydro-isobenzofuran-1-yl-propyl amine]	7.42		5.05	5.80								4.88	pIC50 [7, 22]: 4.67; pIC50 ([11]; Table 1, racemic forms, duplicate, read-out: Transporter Binding IC50 5-HT): 7.07
